pKi: −log10 of the molar value.
The compounds below were run against DNA-PK (Homo sapiens, UniProt P78527) (assay: DNA-PK inhibition assay (radiometric, 33P-ATP)). Settings: 100 μM ATP, competitive tight-binding fit.
Type: biochemical
Procedure, shortened: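 Approx. 6 nM DNA-PK with 10 µg/mL sheared dsDNA, 0.8 mg/mL peptide substrate and 100 µM 33P-ATP in HEPES pH 7.5, 10 mM MgCl2; 45 min, phosphoric acid quench. Phosphopeptide captured on filter plates and counted by scintillation; Ki from a competitive tight-binding model fit.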

Row | pKi | SMILES
1 | > 7.52 | CNC(=O)c1ccnc2c([C@H](C)CNc3cc(-c4ccnc(C5CCC5)c4)ncn3)cccc12 [Compound 913]
2 | > 7.52 | CNC(=O)c1ccc(C(C)CNc2cc(-c3ccc(CCO)cc3)ncn2)c(OC)c1 (centres unmarked) [Compound 339]
3 | > 7.52 | CNC(=O)c1ccnc2c([C@H](C)CNc3cc(-c4ccc(N(C)CCC(C)(C)O)nc4)ncn3)cccc12 [Compound 717]
4 | > 7.52 | COCCn1ncc2cc(-c3cc(NCC(C)c4ccsc4OC)ncn3)cnc21 (centres unmarked) [Compound 258]
5 | > 7.52 | C[C@H](CNc1cc(-c2cnc3c(cnn3C3COC3)c2)ncn1)c1ccnc2c1OCCO2 [Compound 493]
6 | > 7.52 | CNC(=O)c1c(F)cnc2c([C@H](C)CNc3cc(-c4ccc(C)nc4)ncn3)cccc12 [Compound 620]
7 | > 7.52 | CNC(=O)c1ccnc2c([C@H](C)CNc3cc(-c4ccc(C5(O)COC5)cc4)ncn3)cccc12 [Compound 809]
8 | > 7.52 | CNC(=O)c1ccc([C@H](C)CNc2cc(-c3ccc(NCCN(C)C)nc3)ncn2)c(OC)c1 [Compound 369]
9 | > 7.52 | COc1ccccc1[C@H](C)CNc1cc(-c2ccc(NC3CCN(C4CC4)CC3)nc2)ncn1 [Compound 242]
10 | > 7.52 | CNC(=O)c1ccnc2c([C@H](C)CNc3cc(-c4ccnc(N5CCC(O)CC5)c4)ncn3)cccc12 [Compound 819]
11 | > 7.52 | CNC(=O)c1ccnc2c([C@H](C)CNc3cc(-c4ccc(C#N)c(F)c4)ncn3)cccc12 [Compound 871]
12 | > 7.52 | CCn1ccc2cc(-c3cc(NCCc4ccccc4OC)ncn3)cnc21 [Compound 35]
13 | > 7.52 | CNC(=O)c1ccnc2c([C@H](C)CNc3cc(-c4cnc(C(C)(C)C)nc4)ncn3)cccc12 [Compound 791]
14 | > 7.52 | C[C@H](CNc1cc(-c2cnc(N)c(Cl)c2)ncn1)c1ccnc2c1OCCO2 [Compound 553]
15 | > 7.52 | CNC(=O)c1ccc([C@H](C)CNc2cc(-c3cnc(NC)nc3)ncn2)c(OC)c1 [Compound 304]
16 | > 7.52 | CNC(=O)CNc1ccc(-c2cc(NC[C@@H](C)c3cccc4c(C(=O)NC)ccnc34)ncn2)cn1 [Compound 632]
17 | > 7.52 | CNC(=O)c1ccnc2c([C@H](C)CNc3cc(-c4cc(F)c(F)c(F)c4)ncn3)cccc12 [Compound 873]
18 | > 7.52 | CNC(=O)c1ccnc2c([C@H](C)CNc3cc(-c4cnc(N5CCC(O)CC5)nc4)ncn3)cccc12 [Compound 729]

Further lines, the compound ahead of its results:

Row | SMILES | pKi
19 | CNC(=O)c1ccnc2c([C@H](C)CNc3cc(-c4ccc(=O)n(C)c4)ncn3)cccc12 [Compound 655] | > 7.52
20 | CNC(=O)c1ccnc2c([C@H](C)CNc3cc(-c4cnc(N(C)C)nc4)ncn3)cccc12 [Compound 810] | > 7.52
21 | CNC(=O)c1ccnc2c([C@H](C)CNc3cc(-c4ccc(C)nc4)ncn3)ccnc12 [Compound 624] | > 7.52
22 | CNC(=O)c1ccnc2c([C@H](C)CNc3cc(-c4cnnc(C)c4)ncn3)ccc(F)c12 [Compound 969] | > 7.52
23 | CNC(=O)c1ccnc2c([C@H](C)CNc3cc(-c4ccc(N5CCC(C(C)(C)O)CC5)nc4)ncn3)cccc12 [Compound 734] | > 7.52
24 | CNC(=O)c1ccc([C@H](C)CNc2cc(-c3ccc(C)nc3)ncn2)c(OC2CCC2)c1 [Compound 478] | > 7.52
25 | CNC(=O)c1ccc(C(C)CNc2cc(-c3ccc(OC)nc3)ncn2)c(OC)c1 (centres unmarked) [Compound 320] | > 7.52
26 | Cc1ccc(-c2cc(NC[C@@H](C)c3cccc4c(C(=O)NCC(F)(F)F)ccnc34)ncn2)cn1 [Compound 546] | > 7.52
27 | CNC(=O)c1ccc([C@H](C)CNc2cc(-c3ccc(Nc4nc[nH]n4)nc3)ncn2)c(OC)c1 [Compound 354] | > 7.52
28 | CNC(=O)c1c(F)cnc2c([C@H](C)CNc3cc(-c4cnc5c(c4)COC5)ncn3)cccc12 [Compound 966] | > 7.52
29 | CNC(=O)c1ccc([C@H](C)CNc2cc(-c3ccc(NCCCO)nc3)ncn2)c(OC)c1 [Compound 355] | > 7.52
30 | CC(CNc1cc(-c2cnc3c(cnn3C3CCN(C)CC3)c2)ncn1)c1ccccc1O (centres unmarked) [Compound 151] | > 7.52
31 | COc1ccccc1[C@H](C)CNc1cc(-c2ccnc(NCCSC)c2)ncn1 [Compound 210] | > 7.52
32 | CNC(=O)c1ccc([C@H](C)CNc2cc(-c3ccc4scnc4c3)ncn2)c(OC)c1 [Compound 316] | > 7.52
33 | COCc1ccc(-c2cc(NC[C@@H](C)c3ccnc4c3OCCO4)ncn2)cc1 [Compound 458] | > 7.52
34 | CNC(=O)c1ccc([C@H](C)CNc2cc(-c3ccc(N4CCC4)nc3)ncn2)c(OC)c1 [Compound 395] | > 7.52
35 | COc1cc(F)c(F)cc1C(C)CNc1cc(-c2ccc(C)nc2)ncn1 (centres unmarked) [Compound 117] | > 7.52
36 | COc1ccccc1[C@H](C)CNc1cc(-c2ccnc(-c3ccnc(F)c3)c2)ncn1 [Compound 105] | > 7.52
37 | Cc1ccc(-c2cc(NCCc3ccccc3OC3CC3)ncn2)cn1 [Compound 86] | > 7.52

Row | SMILES | pKi
38 | CCOc1ccccc1[C@H](C)CNc1cc(-c2ccc(N3CCN(C)CC3)nc2)ncn1 [Compound 152] | > 7.52
39 | CNC(=O)c1ccc([C@H](C)CNc2cc(-c3ccc(NC4CC4)nc3)ncn2)c(OC)c1 [Compound 388] | > 7.52
40 | CNC(=O)c1ccnc2c([C@H](C)CNc3cc(-c4cncc(C(C)(C)O)c4)ncn3)cccc12 [Compound 879] | > 7.52
41 | CNC(=O)c1ccnc2c([C@H](C)CNc3cc(-c4cnc5c(c4)CCCO5)ncn3)cccc12 [Compound 793] | > 7.52
42 | CNC(=O)c1ccnc2c([C@H](C)CNc3cc(-c4ccc(N5CCOCC5)cc4)ncn3)cccc12 [Compound 678] | > 7.52
43 | CNC(=O)c1ccnc2c([C@H](C)CNc3cc(-c4ccc5ncccc5c4)ncn3)cccc12 [Compound 582] | > 7.52
44 | COc1ccccc1[C@H](C)CNc1cc(-c2cnc3c(cnn3C3CN(C(C)=O)C3)c2)ncn1 [Compound 249] | > 7.52
45 | CNC(=O)c1ccnc2c([C@H](C)CNc3cc(-c4ccnc(N)c4)ncn3)cccc12 [Compound 876] | > 7.52
46 | CCS(=O)(=O)c1ccc(-c2cc(NC[C@@H](C)c3cccc4c(C(=O)NC)ccnc34)ncn2)cc1 [Compound 676] | > 7.52
47 | CNC(=O)c1ccnc2c([C@H](C)CNc3cc(-c4ccc(N(C)CC5CC5)nc4)ncn3)cccc12 [Compound 625] | > 7.52
48 | CC(CNc1cc(-c2cnc3c(cnn3CCO)c2)ncn1)c1csc2cccnc12 (centres unmarked) [Compound 399] | > 7.52
49 | CNC(=O)c1ccnc2c([C@H](C)CNc3cc(-c4ccc(C(C)(C)C#N)cc4)ncn3)cccc12 [Compound 679] | > 7.52
50 | CNC(=O)c1c(F)cnc2c([C@H](C)CNc3cc(-c4ccc(C5CC5)nc4)ncn3)cccc12 [Compound 857] | > 7.52
51 | CNC(=O)c1c(N2CCOCC2)cnc2c([C@H](C)CNc3cc(-c4ccc(C)nc4)ncn3)cccc12 [Compound 767] | > 7.52
52 | C[C@H](CNc1cc(-c2ccc3ncccc3c2)ncn1)c1ccnc2cccnc12 [Compound 501] | > 7.52
53 | CNC(=O)c1c(F)cnc2c([C@H](C)CNc3cc(-c4cnc(C5CCOCC5)nc4)ncn3)cccc12 [Compound 833] | > 7.52
54 | COc1ccccc1[C@H](C)CNc1cc(-c2ccc(F)nc2)ncn1 [Compound 96] | > 7.52
55 | CCOC(=O)C(C)(C)n1ncc2cc(-c3cc(NCC(C)c4ccc(C(=O)NC)cc4OC)ncn3)cnc21 (centres unmarked) [Compound 276] | > 7.52
56 | CNC(=O)c1c(F)cnc2c([C@H](C)CNc3cc(-c4cnc(OC(C)C)nc4)ncn3)cccc12 [Compound 938] | > 7.52
